Conditions: Liquid, Vibrating tube method

CCCC(C)C [2-methylpentane]
mass density [kg/m3]
Conditions	283.15 K	288.15 K	293.15 K	298.15 K	303.15 K	308.15 K	313.15 K	318.15 K	323.15 K	328.15 K
100 kPa	662.38	657.8	653.28	648.63	643.96	639.25	634.49	629.65	624.76	619.82
2000 kPa	664.49	659.95	655.38	651	646.27	641.65	637.11	632.32	627.48	622.75
5000 kPa	667.45	663.16	658.76	654.32	649.83	645.36	640.96	636.32	631.78	627.22
7000 kPa	669.44	665.17	660.81	656.61	652.12	647.77	643.31	638.86	634.39	629.87
10000 kPa	672.23	668.05	663.8	659.71	655.36	651.1	646.93	642.49	638.24	633.86
20000 kPa	680.99	677.13	673.11	669.38	665.3	661.38	657.45	653.46	649.56	645.47
30000 kPa	689.02	685.21	681.56	677.93	673.98	670.38	666.76	663.07	659.4	655.55
40000 kPa	696.18	692.59	689.05	685.62	682.03	678.4	675.03	671.49	667.99	664.47
50000 kPa	702.82	699.4	695.95	692.66	689.27	685.81	682.68	679.17	675.91	672.49
60000 kPa	708.98	705.61	702.39	699.21	695.84	692.62	689.53	686.27	683.16	679.93
65000 kPa	711.97	708.71	705.49	702.34	699.14	695.97	692.86	689.7	686.56	683.41

CCC(C)CC [3-methylpentane]
mass density [kg/m3]
Conditions	283.15 K	288.15 K	293.15 K	298.15 K	303.15 K	308.15 K	313.15 K	318.15 K	323.15 K	328.15 K
100 kPa	673.34	668.91	664.28	659.73	655.07	650.44	645.7	640.93	636.14	631.22
2000 kPa	675.33	670.93	666.4	661.91	657.33	652.85	648.1	643.46	638.83	634.03
5000 kPa	678.2	673.95	669.49	665.13	660.71	656.28	651.77	647.27	642.73	638.2
7000 kPa	680.08	675.9	671.54	667.22	662.86	658.61	654.13	649.71	645.26	640.84
10000 kPa	682.8	678.66	674.41	670.25	666	661.77	657.53	653.27	648.88	644.64
20000 kPa	691.21	687.28	683.39	679.53	675.49	671.68	667.66	663.74	659.72	655.85
30000 kPa	698.81	695.19	691.45	687.73	683.96	680.42	676.56	672.89	669.28	665.6
40000 kPa	705.94	702.32	698.72	695.4	691.63	688.33	684.59	681.17	677.73	674.39
50000 kPa	712.39	708.77	705.44	702.25	698.64	695.51	692.01	688.56	685.39	682.22
60000 kPa	718.5	715.04	711.72	708.63	705.24	702.1	698.74	695.68	692.42	689.42
65000 kPa	721.33	718.14	714.81	711.62	708.41	705.28	702.04	699.05	695.87	692.79

CCC(C)(C)C [2,2-dimethylbutane]
mass density [kg/m3]
Conditions	283.15 K	288.15 K	293.15 K	298.15 K	303.15 K	308.15 K	313.15 K	318.15 K	323.15 K	328.15 K
100 kPa	658.57	653.96	649.25	644.46	639.75	634.86	630.04	625.06	620.03	–
2000 kPa	660.76	656.25	651.6	646.95	642.26	637.48	632.76	627.98	623.17	618.2
5000 kPa	664.07	659.62	655.12	650.7	646.07	641.54	637.06	632.33	627.74	623.02
7000 kPa	666.19	661.74	657.45	653.04	648.58	644.04	639.66	635.14	630.61	626.02
10000 kPa	669.19	664.88	660.66	656.38	652.04	647.69	643.44	639.02	634.54	630.26
20000 kPa	678.5	674.51	670.51	666.62	662.53	658.58	654.67	650.69	646.65	642.58
30000 kPa	686.83	683.05	679.25	675.66	671.8	668.08	664.53	660.78	656.94	653.14
40000 kPa	694.31	690.77	687.12	683.71	680.03	676.55	673.1	669.72	666.02	662.51
50000 kPa	701.27	697.81	694.34	691.09	687.56	684.38	680.94	677.73	674.2	670.88
60000 kPa	707.71	704.32	701.07	697.88	694.57	691.41	688.22	685.05	681.7	678.64
65000 kPa	710.76	707.61	704.25	701.14	697.92	695.23	691.61	688.58	685.35	682.59

From the NIST ThermoML archive (doi:10.1016/j.fluid.2012.11.013)
